Patent US20130281528A1, “METHOD OF TREATING GASTRIC CANCER” (Niiki Pharma Acquisition Corp.2, priority 2010, published 2013)

Tested on: human gastric cancer cell line NCI-N87
Experiment: ATCC's MTT Cell Proliferation Assay
Type: cell-based
Conditions: 72 hours post-treatment, concentration that inhibits cell growth by 50%
Method: To test the activities of sodium trans-[tetrachlorobis(1H-indazole)ruthenate(III)], ATCC's MTT Cell Proliferation Assay® was performed using human gastric cancer cell line NCI-N87 (differentiated carcinoma). Stock cultures were allowed to grow to 70-80% confluence for this study. The anti-proliferative activity of sodium trans-[tetrachlorobis(1H-indazole)ruthenate(III)], against the indicated cell line was evaluated in vitro using the ATCC's MTT Cell Proliferation Assay (Catalog No. 30-1010K). NCI-N87 was grown using RPMI1640 (Cell Gro 10-040-CV), with 1% of 1M HEPES, 1% sodium pyruvate, 1% of 45% glucose solution, 10% of heat-inactivated FBS and 1% of pen/strep/glutamine. […] The plates were left overnight at room temperature in the dark and was read on a plate reader using SoftMax® Pro (version 5.2, Molecular Devices).
The absorbance data was analyzed as follows: Absorbance values were converted to Percent of Control and plotted against test agent concentrations for IC50 calculations using SoftMax® Pro (version 5.2, Molecular Devices). […] Percent of Control values were calculated by dividing the absorbance values for each test well by the No Drug Control average (column 11 values; cells+vehicle control) and multiplying by 100. […]

## [Cl][Ru-]([Cl])([Cl])[Cl].[Na+].c1ccc2[nH]ncc2c1.c1ccc2[nH]ncc2c1 [sodium trans-[tetrachlorobis(1H-indazole)ruthenate(III)]]
  IC50: 3.73 µM
